In patent US11679099B2, “Use of HIF-2α inhibitors for treating chondrosarcoma, or preventing recurrence and metastasis thereof” (SEOUL NATIONAL UNIVERSITY R&DB FOUNDATION, priority 2020, dated 2023):
“Also recorded” adds a separate entry of the source.

How the values were obtained:
SW1353 cells [1] = assay: Apoptosis analysis, Annexin-V/PI flow cytometry; format: cell-based, human; conditions: 10 μM TC-S7009 pretreatment 48 h and/or 5 μg/ml cisplatin 24 h
Procedure: Drug Interaction Studies. For analysis of combination index (CI), SW1353 cells were pretreated with vehicle, 10 μM Nutlin-3a, 10 μM ABT-888, or 10 μM TC-S7009 for 48 h and additionally treated with 0.2, 0.5, 1, 2, or 5 μg/ml cisplatin or left untreated for 72 h. Cell viability was measured by the MTT assay. CI was calculated using the Compusyn software version 1.0, and synergistic effects were determined by the Chou-Talalay method (Chou T C. Drug Combination Studies and Their Synergy Quantification Using the Chou-Talalay Method. Cancer Res. 2010; 70(2):440-446). Drug combination at a non-constant ratio was used to calculate CI. For apoptosis analysis, SW1353 cells were pretreated with vehicle, 10 μM Nutlin-3a, 10 μM ABT-888, or 10 μM TC-S7009 for 48 h and additionally treated with 5 μg/ml cisplatin for 24 h. Subsequently, cells were stained with the Annexin V-FITC Apoptosis Detection Kit (Sigma Aldrich, APOAF) according to manufacturer's protocol. Flow cytometry analysis was performed on a FACSCanto II flow cytometer (BD Biosciences).

SW1353 tumors = assay: Adjuvant chemotherapy in orthotopic chondrosarcoma xenograft model; format: in vivo, athymic nude mice (BALB/c nu/nu); conditions: mice, i.p., 2 mg/kg cisplatin and/or 20 mg/kg TC-S7009, twice weekly for four weeks
Description: FIG. 5G is a schematic diagram of combination chemotherapy with TC-S7009. Mice were intraperitoneally injected 8 times with DMSO, cisplatin, TC-S7009, or cisplatin plus TC-S7009, twice a week from two weeks following the orthotopic xenograft (n=5).
Mice and experimental systems. Female athymic nude mice (BALB/c nu/nu, 5 weeks old) were purchased from Daehan-Biolink Co. and housed in individually ventilated cages. Mice were maintained under pathogen-free conditions. Food and water were provided after their sterilization. For in vivo experiments, at least five mice per experimental condition were used. Animals were randomly allocated to each experimental group, and the treatment allocation was blinded. In the orthotopic injection model, SW1353 cells were trypsinized and resuspended in PBS after centrifugation. The number of cells was adjusted to 1×10^6 cells per 25 μl. For SW1353 cells that stably overexpressed eGFP or HIF-2α, cell number was adjusted to 1×10^5 cells per 25 μl. Cells were mixed with 25 μl of Geltrex (Thermo Fisher Scientific, Geltrex™ LDEV-Free Reduced Growth Factor Basement Membrane Matrix). Before the procedure, mice were anesthetized. Skin was incised using a scalpel, and a single 0.35-mm diameter hole was drilled through the cartilage of the upper right tibia with the aid of sterile H-files (MANI, 28 mm #70). Subsequently, 10 μl of cell mixture was slowly injected with a 30-gauge microsyringe needle through the hole. The hole was sealed using surgical wax, and the surgery site was extensively rinsed with sterile PBS to wash out any spilled cell mixture. As the last step of the surgical procedure, the cutaneous wound was sutured. After the chosen experimental periods, mice were sacrificed, and total hindlimbs were dissected. For lung specimens, PBS was instilled through the trachea, and all specimens were processed for histomorphometric and immunohistochemical analysis. For the adjuvant chemotherapy studies, two weeks after the orthotopic injection of chondrosarcoma cells, mice were injected intraperitoneally with or without 2 mg/kg cisplatin in the presence or absence of 20 mg/kg TC-S7009 (Tocris) dissolved in Kolliphor EL (castor oil, 10% v/v, Sigma Aldrich, C5135). Vehicle solution was composed of DMSO, PBS, and Kolliphor EL (10% v/v). Chemotherapy cocktails were administered to mice twice weekly for four weeks.

SW1353 cells [2] = assay: Transwell invasion assay; format: cell-based, human; conditions: 10 μM TC-S7009 vs DMSO
Procedure: FIG. 5A is the results of Transwell invasion (n=3) assay using SW1353 cells treated with DMSO or 10 μM TC-S7009. Representative images were shown, the invaded cells were calculated on the random image fields and normalized to the cells treated with DMSO. Scale Bar=200 μm.
Transwell invasion assay. The invasion assay was performed using Transwell (BD Falcon, pore size, 8 μm, PET) in 24-well plates. Filters were coated with 20 μg of Geltrex (Thermo Fisher Scientific) in 20 μl of serum-free DMEM and dried for 4 h in a sterile environment. Prior to the invasion assay, SW1353 and OUMS-27 cells were starved for 12 h in serum-free DMEM. Immediately before seeding the cells, the dried transwells were rehydrated with 25 μl of serum-free DMEM for 1 h at 37° C. Starved cells were trypsinized, centrifuged, and resuspended in serum-free DMEM. Approximately 1×10^5 cells in 200 μl of serum-free DMEM were placed in each transwell and 2 ml of DMEM supplemented with 10% FBS was placed in each 24-well plate. The plates were incubated for 48 h at 37° C., fixed in 4% paraformaldehyde for 2 min, permeabilized in 100% methanol for 20 min, and stained with 0.1% crystal violet in 10% ethanol for 20 min. Cells on the upper side of the transwell were removed with cotton-tipped swabs. […] Image fields were randomly chosen, and invading cells were counted using the ImageJ software (National Institutes of Health).

SW1353 cells [3] = assay: Migration assay; format: cell-based, human; conditions: 10 μM TC-S7009 vs DMSO
Description: (§1) (A) SW1353 cells were co-transfected with pcDNA3 or pcDNA3-EPAS1 and the HRE containing reporter plasmid in the absence or presence of different doses of TC-S7009. HRE reporter activity was normalized to Renilla luciferase activity (n=5). (B) Trypan blue exclusion assay to test the effect of TC-S7009 on cell viability of SW1353 cells (n=3). (C) Colony formation assay of SW1353 cells in the absence or presence of different doses of TC-S7009. The number of colonies counted using the ImageJ software (n=5). (D) Migration assay performed using SW1353 cells treated with DMSO or 10 μM TC-S7009. Representative images are shown (Left), and the relative area of migration (Right) was determined using the Image-Pro Premier software (n=6). (Scale bar, 200 μm.) Values indicate the mean±SEM, ***P<0.001, N.S., not significant, ANOVA (A-C) and Student's t test (D). P values; N.S.=non-significant, ***P<0.001. HRE=hypoxia response element; P=P value.
Migration assay. SW1353 and OUMS-27 cells were cultured in a 6-well plate at a density of 5×10^5 cells per well. When cells achieved 90% confluence, a wound was made with a sterile yellow tip. Cells were washed with PBS three times and incubated in fresh media with 1% FBS for 36 h. Every 12 h, randomly selected fields were captured by a digital camera under a microscope.

SW1353 cells [4] = assay: Colony formation assay; format: cell-based, human; conditions: 10 μM or different doses of TC-S7009 vs DMSO
Procedure: FIG. 5D is the results of colony formation (P<0.001, n=5) assays using SW1353 cells treated with DMSO or 10 μM TC-S7009 assay using SW1353 cells treated with DMSO or 10 μM TC-S7009. The representative images and quantification results were shown.
as §1
Colony formation assay. SW1353 cells were suspended in DMEM supplied with 10% FBS and seeded in 6-well plates; 1×10^3 and 500 cells were seeded in each well for the knockdown and overexpression experiments, respectively. […]

SW1353 cells [5] = assay: Sphere formation assay; format: cell-based, human; conditions: 10 μM TC-S7009 vs DMSO
Procedure: FIG. 5C is the results of sphere formation (n=3) assays using SW1353 cells treated with DMSO or 10 μM TC-S7009 assay using SW1353 cells treated with DMSO or 10 μM TC-S7009. The representative images were shown and the diameter of the spheres were measured. Box-whisker plot were used to present the data. Scale Bar=200 μm.
Sphere formation assay. SW1353 and OUMS-27 cells were suspended in DMEM-F12 medium supplemented with 2% of B27 supplement (Thermo Fisher Scientific), 20 ng/ml EGF (Invitrogen), and 20 ng/ml basic fibroblast growth factor (bFGF; Peprotech). For experiments using SW1353 cells overexpressing eGFP or HIF-2α, cells were suspended in DMEM-F12 medium in the absence of the above supplements. Cells were then seeded in 24-well Ultra-low attachment plates (Corning) at a density of 1×10^4 cells per well. Four days later, fresh medium was added in each well. Seven days later, spheres were analyzed by the sphere diameter and the number of spheres larger than 50 μm (Axio Observer Z1, Zeiss). In relation to the diameter of the spheres, three representative fields per well were imaged, and diameters were measured using the AxioVision software (Zeiss): the three longest diameters per image field for each group were recorded. The distribution of the sphere diameters was plotted using the notched Box-and-Whisker plot originally invented by Tukey. […]

HIF-2α [6] = molecular target: T1, HIF-2α (Homo sapiens, UniProt Q99814); assay: HRE reporter gene (luciferase) assay; format: cell-based; conditions: SW1353 cells co-transfected with pcDNA3-EPAS1 and HRE reporter; different doses of TC-S7009, 24 h
T1 construct: host or cells: SW1353 cells
T1 sequence (Q99814 whole entry): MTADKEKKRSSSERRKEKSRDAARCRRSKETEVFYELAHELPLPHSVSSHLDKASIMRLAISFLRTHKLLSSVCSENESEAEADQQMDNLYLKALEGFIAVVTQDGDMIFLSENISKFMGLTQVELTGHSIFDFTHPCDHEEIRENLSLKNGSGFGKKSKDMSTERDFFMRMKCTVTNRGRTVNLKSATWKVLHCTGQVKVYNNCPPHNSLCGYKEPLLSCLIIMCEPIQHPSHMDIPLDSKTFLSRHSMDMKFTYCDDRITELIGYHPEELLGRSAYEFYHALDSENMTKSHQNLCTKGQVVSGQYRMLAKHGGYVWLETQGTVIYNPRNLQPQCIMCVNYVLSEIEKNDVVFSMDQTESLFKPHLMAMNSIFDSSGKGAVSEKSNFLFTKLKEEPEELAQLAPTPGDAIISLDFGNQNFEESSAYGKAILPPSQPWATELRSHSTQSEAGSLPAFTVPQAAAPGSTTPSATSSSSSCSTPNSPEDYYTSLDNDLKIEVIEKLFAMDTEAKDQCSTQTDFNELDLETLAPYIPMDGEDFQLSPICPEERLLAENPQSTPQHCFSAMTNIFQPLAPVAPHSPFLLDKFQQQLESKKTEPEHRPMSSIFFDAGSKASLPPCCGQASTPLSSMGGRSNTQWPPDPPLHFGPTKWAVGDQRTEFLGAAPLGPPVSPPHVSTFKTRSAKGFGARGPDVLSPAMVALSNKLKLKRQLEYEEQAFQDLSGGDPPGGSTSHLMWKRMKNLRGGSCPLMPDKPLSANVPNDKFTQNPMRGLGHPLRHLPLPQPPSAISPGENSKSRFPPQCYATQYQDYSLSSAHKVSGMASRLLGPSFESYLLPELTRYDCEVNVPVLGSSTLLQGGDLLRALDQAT
Procedure: (A) SW1353 cells were co-transfected with pcDNA3 or pcDNA3-EPAS1 and the HRE containing reporter plasmid in the absence or presence of different doses of TC-S7009. HRE reporter activity was normalized to Renilla luciferase activity (n=5). […] (Scale bar, 200 μm.) Values indicate the mean±SEM, ***P<0.001, N.S., not significant, ANOVA (A-C) and Student's t test (D).
Luciferase assay. HIF-2α activity was determined by reporter gene assay. SW1353 cells were transfected with 1 μg of a reporter vector containing hypoxia responsive element repeats. The thymidine kinase promoter-Renilla luciferase reporter plasmid (pRL-TK) was used as a control for measuring transfection efficiency. […] Twenty-four hours after transfection, cells were treated with TC-S7009 for an additional 24 h. Luciferase activity was measured using luciferin and normalized by Renilla luciferase activity.

SW1353 cells [7] = assay: Gelatin degradation assay; format: cell-based, human; conditions: 10 μM TC-S7009 vs DMSO
Procedure: Gelatin degradation assay. SW1353 cells were seeded on coverslips coated with Oregon Green 488-conjugated gelatin (Life Technologies) at 4×10^4 cells per well. Briefly, coverslips were treated with 50 μg/ml poly-D-Lysine (Corning) for 20 min followed by 0.5% glutaraldehyde (Junsei Chemical) for 15 min on ice. Treated coverslips were coated at 37° C. with pre-warmed 200 μg/ml Oregon Green 488-conjugated gelatin for 10 min in the dark, treated with 5 mg/ml NaBH4 for 15 min, and extensively washed with 70% ethanol and PBS. Cells were incubated for 18 h after seeding. For imaging gelatin degradation, cells were fixed with 50% methanol (v/v) and 10% acetic acid (v/v) solution for 10 min and stained with DAPI. For each coverslip, three fields were imaged at 20× magnification using a fluorescence microscope (EVOS FL Cell Imaging System, Thermo Fisher Scientific). To quantify gelatin degradation, the area of degradation in each field was measured by color-thresholding, using the ImageJ software.

SW1353 cells [8] = assay: Trypan blue exclusion assay (cell viability); format: cell-based, human
Description: as §1

HIF-2α [9] = assay: siRNA knockdown of HIF-2α in SW1353 cells; format: cell-based, human; conditions: SW1353 cells transfected with siRNA
Procedure: Cell culture. Chondrosarcoma cell lines SW1353 and OUMS-27 were purchased from ATCC and JCRB Cell Bank, respectively, maintained in 3% O2 at 37° C., and cultured in DMEM (WelGENE Inc., LM001-05) supplemented with 10% FBS (Gibco, 26140079) and 1% antibiotics. For the selection of stable cell lines, 1×10^3 cells were seeded in 100 mm dishes and incubated for approximately two weeks until colonies became visible, and they were supplied with fresh media every three days. Visible colonies were individually isolated using cloning rings. Single colony-forming cells were trypsinized, seeded into 24-well plates, and gradually expanded to 100 mm dishes. Transfection was performed with METAFECTENE PRO (Biontex, T040) according to the manufacturer's protocol. All siRNAs were purchased from Bioneer. All cell lines were tested and authenticated using short-tandem repeat (STR) profiling by the Korean Cell Line Bank and were free of mycoplasma contamination. None of the cell line stocks used in this study was found in the database of commonly misidentified cell lines listed by ICLAC.
Microarray. SW1353 cells (3×10^5) were transfected with control, HIF1A, or EPAS1 siRNAs. Three biological replicates were used for each group. cDNA was synthesized using the GeneChip WT (Whole Transcript) Amplification kit as described by the manufacturer. […]

## N.N.[Cl][Pt][Cl] [Cisplatin, cisplatin]
SW1353 cells [1]
  apoptotic cells (Annexin-V and PI positive populations): mild increase
SW1353 tumors
  extraosseous outgrowth of primary tumor: mild-to-moderate reduction
  pulmonary (lung) metastasis: mild-to-moderate reduction

## O=[N+]([O-])c1c(Nc2cc(F)cc(Cl)c2)ccc2nonc12 [TC-S7009, N-(3-Chloro-5-fluorophenyl)-4-nitro-2,1,3-benzoxadiazol-5-amine]
SW1353 cells [2]
  invasive phenotypes (transwell invasion): effectively blocked
SW1353 cells [3]
  migration ability: without affecting
SW1353 cells [1]
  apoptotic cells (Annexin-V and PI positive populations): did not noticeably affect cell death
SW1353 tumors
  extraosseous outgrowth of primary tumor: mild-to-moderate reduction
  pulmonary (lung) metastasis: mild-to-moderate reduction
SW1353 cells [4]
  clonogenicity (colony formation): effectively blocked
SW1353 cells [5]
  sphere formation: effectively blocked
HIF-2α [6]
  transcriptional activity of HIF-2α (HRE reporter activity): effectively abolished; also recorded: effectively blocks
SW1353 cells [7]
  matrix-degrading activity (gelatin degradation): effectively blocked
SW1353 cells [8]
  cytotoxicity / cell viability: without any apparent cytotoxicity; also recorded: without affecting

## EPAS1 siRNA: siRNA for HIF-2α, sense and antisense SEQ ID Nos: 3 and 4 with dTdT overhang (sense ACUACGUCCUGAGUGAGAUDTDT; antisense AUCUCACUCAGGACGUAGUDTDT; dTdT overhangs, chemistry not fully specified)
HIF-2α [9]
  expression of HIF-2α at the cellular level: effectively suppress
